Reference: PMC3591457, “Biodistribution and Elimination Study of Fluorine-18 Labeled N^ε-Carboxymethyl-Lysine following Intragastric and Intravenous Administration” (PLoS ONE, 2013)

Assays:
RAW264.7 cells = test: Cell uptake of ^18F-CML and native CML in RAW264.7 cells; format: cell-based; conditions: incubation 2 hours
Procedure: (§1) To compare the different bioactivities of CML and ^18F-CML, two cell lines were evaluated for their capacity to take up native CML and the fluorobenzoylated derivative ^18F-CML. RAW264.7 macrophages and HepG2 liver cells were cultured in DMEM/LOWGLUCOSE, supplemented with 10% fetal bovine serum (FBS), 4.0 mmol/L L-glutamine, 110 mg/L sodium pyruvate, 100 U/mL penicillin, and 100 mg/L streptomycin at 37°C and 5% CO2.
(§2) For ^18F-CML cell uptake studies, RAW264.7 cells and HepG2 cells were seeded into 24-well plates at a density of 4×10^5 cells per well. Radio-tracer ^18F-CML (0.5 µCi/well, 3 µmol/mL) was incubated in a 37°C water bath for 15, 30, 60, and 120 min. At each time point the cells were washed 3 times with phosphate-buffered saline (PBS). The supernatant, washing-up liquid (unbound activity) and the pellet (cell-bound activity) were transferred to new tubes. Triplicates of the counting tubes containing supernatant and cell pellet were counted individually using a gamma counter for 1 min. For the blocking experiment, the uptake was carried out in the presence of the non-radioactive CML(10 µmol/mL) and processed similarly as described above. The uptake (%) of radio-tracer into the cell was determined using a gamma counter according to the following equation: [drawing 1]
(§3) For CML cell uptake ratio studies, unaltered CML (10 µmol/mL) was added to RAW264.7 and HepG2 cell pellets individually. The total proteins of each cell line were initially extracted from the lysates of 4×10^5 cells. […] The supernatants were purified and detected usingby the method described by Drusch et al., which uses an RP-HPLC method with an ortho-phthaldialdehyde (OPA)-derivatisation and fluorescence detection suited for automation. The HPLC analysis method used a 250 mm×4.6 mm C18 column (GROM-SIL 100 ODS-0 AB, Herrenberg, Germany) and detected the fluorescence excitation at 340 nm and emission at 455 nm. The peak identification of CML was confirmed by the retention time and standard addition and was quantified using an external standard. The amount of CML was calculated and expressed as a percentage.

HepG2 cells = test: Cell uptake of ^18F-CML and native CML in HepG2 cells; format: cell-based; conditions: incubation 2 hours
Procedure: as §1, §2, §3

**Q.** Which results are given for `NC(CCCCNCC(=O)O)C(=O)O` (stereo not shown) [CML, N^ε-carboxymethyl-lysine]?
**A.** Uptake ratio of unaltered CML, amount less than ^18F-CML (RAW264.7 cells; P<0.01): 0.3%; Uptake of unaltered CML (RAW264.7 cells; n=3): 8.2 µg/mg of cell protein; Uptake ratio of unaltered CML, amount less than ^18F-CML (HepG2 cells; P<0.01): 0.2%; Uptake of unaltered CML (HepG2 cells; n=3): 6.3 µg/mg of cell protein
